This note sets out measurements from US20230035479A1, “METHODS AND COMPOSITIONS FOR REDUCING HAIR GREYING” (President and Fellows of Harvard College, priority 2019, published 2023).

Where two headings read alike, the source gives them in different places.

For assay [1], the system named is melanocyte stem cells (MeSCs). The assay is described as follows: MeSC numbers in hair follicles, TRP2 immunofluorescence or membrane GFP tracing. To be noted: for MeSC preservation in RTX-injected animals: topical 5 mg/kg, until 48 hours post RTX injection, full anagen.
Protocol: For RTX injection, mice received injections of RTX (30-100 μg/kg) in the flank for 1-3 days as described previously [15, 16, 51-56]. […] Control mice were treated with the vehicle only. RTX injection was done either in full anagen (P31-P36) or in 1st telogen (P21). […] Mice were treated for three days (P28-P30). […] RTX was given at Anagen VI (P31˜P36).
The test system of a further assay is C57BL/6J mice. It is filed as in vivo, mouse.
A further assay has as its system mature melanocytes. The assay is described as follows: Differentiated/mature melanocytes and hair bulb cells, immunofluorescence. It is filed as in vivo, mouse. To be noted: full anagen; for proliferation of cells in the hair bulb: RTX-injected animals, topical CDK inhibitors. The protocol: Loss of hair pigmentation can be due to defects in melanin synthesis, loss of differentiated melanocytes, or problems in MeSC maintenance. To understand how stress impacts the melanocyte lineage, RTX was injected into mice in anagen, when both MeSCs and differentiated melanocytes were present but located within distinct compartments—MeSCs were near to the bulge while differentiated melanocytes were at the hair bulb (FIG. 1E). […] These differentiated melanocytes continued to generate pigments, and the hair coat remained black (FIGS. 6F-6G). When hair follicles in the RTX-injected animals entered catagen and telogen, many have lost all MeSCs (FIG. 1E, Telo). Subsequently, when the next round of anagen initiated, differentiated melanocytes were not produced to color new hair shafts, and unpigmented hairs emerged (FIG. 1E, 2nd Ana, FIG. 6H). […] In this case, unpigmented hairs appeared as soon as new hairs emerged in the following anagen (FIGS. 7A-7B). […] MeSCs were also lost or reduced in mice subjected to restraint stress or chronic unpredictable stress (FIG. 7C). Since stress depleted MeSCs, the loss of hair pigmentation in all three conditions was permanent (FIG. 7D).
Quiescence is a key feature of many somatic stem cells. Loss of quiescence has been postulated to cause MeSC loss in Bcl2 mutants. To examine if stress alters MeSCs quiescence, RTX or norepinephrine was injected into mice that had entered full anagen, when MeSCs are normally quiescent. A dramatic increase in the number of proliferating MeSCs was seen within 24 hours after RTX or norepinephrine injection—about 50% of MeSCs became positive for Phospho-Histone H3, an M phase marker (FIG. 4B). This number is in sharp contrast to the MeSC proliferation seen in early anagen (˜6%), the only stage when MeSCs proliferate to self-renew (FIG. 11E).
(§1) Mouse skin samples were fixed using 4% paraformaldehyde (PFA) for 15 minutes at room temperature, washed 6 times with PBS, and immersed in 30% sucrose overnight at 4° C. Samples were then embedded in OCT (Sakura Finetek). 35˜50 μm sections were fixed in 4% paraformaldehyde (PFA) for 2 minutes and washed with PBS and PBST. Slides were then blocked using blocking buffer (5% donkey serum; 1% BSA, 2% cold water fish gelatin in 0.3% Triton in PBS) for 1 hour at room temperature, followed by staining with primary antibodies overnight at 4° C. and secondary antibody for 4 hours at room temperature. For sympathetic nerve density quantification, 90 μm sections were used. EdU was developed for 1 hour using the Click-It reaction according to manufacturer instructions (Thermo Fisher Scientific). TUNEL assay was performed according to manufacturer instructions (Roche). Fontana—Masson staining was performed according to manufacturer instructions (Market Lab ML7255). Antibodies used: TRP2 (Santa Cruz 10451, 1:800), tyrosine hydroxylase (rabbit, Millipore AB152, 1:1000 or sheep, Millipore AB1542, 1:150-1:300), c-Fos (Abcam, 190289, 1:1000), γ-H2AX (Cell Signaling, 9718, 1:400), phospho-histone H3 (rabbit, Cell Signaling Technology 3377S, 1:500), cleaved caspase 3 (rabbit, Cell Signaling Technology 9664S, 1:400), GFP (rabbit, Abcam ab290, 1:1000 or chicken, Ayes labs GFP-1010, 1:200), CD3 (eBioscience 14-0032-81, 1:800), CD11b (eBioscience 14-0112-81, 1:800), Phospho-CREB (Cell Signaling 9198, 1:800), MITF (Abcam ab12039, 1:400).

In assay [2] the test system is melanocyte stem cells (MeSCs). The assay is described as follows: MeSC proliferation, Phospho-Histone H3 immunofluorescence. To be noted: for MeSC quiescence in RTX-injected animals: topical 5 mg/kg, until 48 hours post RTX injection.
Protocol: For RTX injection, mice received injections of RTX (30-100 μg/kg) in the flank for 1-3 days as described previously [15, 16, 51-56]. […] Control mice were treated with the vehicle only. RTX injection was done either in full anagen (P31-P36) or in 1st telogen (P21). […] RTX was given at Anagen VI (P31˜P36).
All images were acquired using a Zeiss LSM 880 confocal microscope or Keyence microscope using ×20 or ×40 magnification lenses. Images are presented as Maximum Intensity Projection images. For colocalization analysis, images are presented as a single Z stack.
A further assay concerns the target Gq-DREADD (Homo sapiens, UniProt P20309, A239G/Y149C). The assay is described as follows: Sympathetic nerve activation with Gq-DREADD by intradermal CNO.
In another assay the test system is sympathetic neurons. The assay is described as follows: c-FOS immunofluorescence in sympathetic ganglia. The format is in vivo, mouse. Conditions: TH-CreER; Gq-DREADD mice injected with CNO.
The next assay concerns human hair follicles. The assay is described as follows: Cultured human hair follicles, pigmented bulge or outer root sheath cells. Conditions: 24 hours. It is filed as cell-based. The protocol:
(§2) FIG. 14C provides quantification of the proportion of follicles that contain pigmented bulge or outer root sheath cells vs those lacking such pigmented cells outside of the bulb region. Human discarded hair bearing skin was cultured for 3 days with single hairs being isolated and grown in semi solid agarose William E medium with vehicle or norepinephrine (0.1 mM) for 24 hours. The cells were assessed after culture to identify those that were pigmented from those that were not. The presence of pigmented cells indicates senescence of melanocyte stem cells. Signal in vehicle control likely reflects the middle-age of the donor follicles.
Hair follicles from discarded scalp skin of […] was cultured for 3 days. Single hairs were isolated and grown in a semi agarose William E medium with vehicle, norepinephrine (NE) (0.1 mM), or NE (0.1 mM) +butoxamine (0.1 mM) (β2 blocker) for 24 hours. The graph indicates the proportion of follicles containing (or lacking) pigmented melanocytes (see arrows) in the bulge or outer root sheath locations, indicating melanocyte stem cell differentiation/senescence.

The subject of assay [3] is melanocyte stem cells (MeSCs). The assay is described as follows: Corticosterone feeding in drinking water. To be noted: corticosterone elevated via feeding, 35 μg/ml in drinking water, three days.
Protocol: Since all stressors led to elevated corticosterone and norepinephrine in the blood, it was considered if these stress-induced circulating factors played a role in stress-induced MeSC loss.
Control mice were treated with the vehicle only. […] Mice were treated for three days (P28-P30).
Another assay concerns the target ADRB2 on MeSCs (Mus musculus, UniProt P18762). The assay is described as follows: Hair greying after intradermal norepinephrine injection.
Assay [4] deals with melanocyte stem cells (MeSCs). The assay is described as follows: Apoptosis (active caspase-3, TUNEL) and DNA damage (gamma-H2AX) in MeSCs. It is filed as in vivo, mouse. The procedure: Radiation causes DNA damage in MeSCs, leading to their differentiation within the niche.
as §1

For another assay, the system named is CREB/ATF1. The assay is described as follows: CREB/ATF1 phosphorylation in human primary melanocytes. The format is cell-based. To be noted: 10 uM, after 15 minutes. The procedure:
as §2
(§3) Primary human melanocytes were derived from neonatal foreskin as previously described and cultured in Medium 254 (Invitrogen, Thermo Fisher Scientific). Melanocytes (passages 2 and 4) were starved for 24 hours in HAM's F-10 +1% penicillin/streptomycin/glutamine before adding NE (10 uM).

Assay [5] deals with primary human melanocytes. The assay is described as follows: qRT-PCR in cultured primary human melanocytes treated with norepinephrine. The format is cell-based. The protocol: as §3
The cDNA libraries were synthesized using Superscript IV VILO master mix with ezDNase (Thermo Fisher). Quantitative real time PCR was performed using power SYBR green (Thermo Fisher) in an ABI QuantStudio6 Flex qPCR instrument. Ct values were normalized to an internal control of beta-actin.
A general note: In qPCR the cycle at which signal appears reflects the starting amount.

[6] abbreviates: sympathetic nerve ablation, 100 mg/kg intraperitoneally daily P18 to P22.
Setting [7] is: topical 5 mg/kg in ethanol, 48 h before to 48 h after RTX.

Chain of ADRB2 on MeSCs (P18762 whole entry): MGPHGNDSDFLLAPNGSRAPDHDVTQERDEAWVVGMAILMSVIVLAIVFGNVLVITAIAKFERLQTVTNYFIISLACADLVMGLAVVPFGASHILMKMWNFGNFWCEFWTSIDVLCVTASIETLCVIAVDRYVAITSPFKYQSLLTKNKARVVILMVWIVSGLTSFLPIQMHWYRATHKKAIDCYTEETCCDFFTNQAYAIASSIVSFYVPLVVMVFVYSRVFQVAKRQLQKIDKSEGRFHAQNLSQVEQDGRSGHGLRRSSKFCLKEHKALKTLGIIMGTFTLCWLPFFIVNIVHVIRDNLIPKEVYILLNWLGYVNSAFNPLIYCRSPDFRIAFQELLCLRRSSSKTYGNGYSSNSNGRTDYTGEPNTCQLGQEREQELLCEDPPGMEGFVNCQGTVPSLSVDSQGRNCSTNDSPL
Chain of Gq-DREADD (P20309 whole entry Y149C/A239G): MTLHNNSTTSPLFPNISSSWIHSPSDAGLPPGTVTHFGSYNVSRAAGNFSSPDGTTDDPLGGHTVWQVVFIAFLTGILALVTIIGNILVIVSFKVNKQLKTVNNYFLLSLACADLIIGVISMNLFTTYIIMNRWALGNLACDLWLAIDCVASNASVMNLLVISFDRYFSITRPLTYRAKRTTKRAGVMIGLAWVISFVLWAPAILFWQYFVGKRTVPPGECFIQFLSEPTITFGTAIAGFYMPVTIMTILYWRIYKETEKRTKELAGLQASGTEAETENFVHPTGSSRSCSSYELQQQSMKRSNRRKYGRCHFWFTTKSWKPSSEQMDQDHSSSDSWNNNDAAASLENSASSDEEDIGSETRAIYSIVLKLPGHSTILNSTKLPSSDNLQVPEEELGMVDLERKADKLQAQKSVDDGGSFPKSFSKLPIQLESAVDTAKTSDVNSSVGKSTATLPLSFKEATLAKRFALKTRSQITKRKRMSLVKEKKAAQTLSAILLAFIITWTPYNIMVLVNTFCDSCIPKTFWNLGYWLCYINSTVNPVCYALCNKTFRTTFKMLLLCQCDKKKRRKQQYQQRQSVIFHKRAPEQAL
Protocol for ADRB2 on MeSCs: To test if elevated norepinephrine was sufficient to cause hair greying in the absence of stress, norepinephrine was introduced locally to the skin via intradermal injections.
For tamoxifen treatment, tamoxifen was diluted in corn oil to a final concentration of 20 mg/ml. To induce recombination, 20 mg/kg was injected intraperitoneally once per day for 4-7 days. […] 50 μm was injected intradermally into experimental animals together with fluorescent beads at full anagen (P31˜P36). Control animals were injected with equivalent volume of vehicle (0.1% ascorbic acid in 0.9% sterile NaCl) with fluorescent beads. The injection sites were marked using water resistant ink.
(§4) For intradermal injection experiments (NE or CNO), unpigmented hairs were quantified by plucking ˜100 hairs from each injection site (marked by water resistant ink at the time of injection), and the percentage of white hairs were calculated by dividing the number of white hairs by the total number of hairs plucked.
Description for Gq-DREADD: To determine if sympathetic nerve activation in the absence of stress is sufficient to drive MeSC loss, a chemogenetic approach was taken using the Designer Receptor Exclusively Activated by Designer Drugs (DREADDs) system [3, 4]. Gq-DREADD is an artificial Gq-protein coupled receptor activated by the inert molecule Clozapine N-Oxide (CNO) but not by endogenous ligands. Activation of Gq-DREADD leads to intracellular calcium release and neuronal firing. TH-CreER; CAG-lsl-Gq-DREADD; Rosa-mT/mG mice were generated, which allowed for artificial activation of sympathetic nerves with CNO (FIG. 3D).
Control mice were treated with the vehicle only. […] For tamoxifen treatment, tamoxifen was diluted in corn oil to a final concentration of 20 mg/ml. To induce recombination, 20 mg/kg was injected intraperitoneally once per day for 4-7 days. For mosaic induction of Tyr-CreER and TH-CreER, 20 mg/kg tamoxifen was injected intraperitoneally once per day for 3 days. […] Control animals were injected with equivalent volume of vehicle (0.1% ascorbic acid in 0.9% sterile NaCl) with fluorescent beads. The injection sites were marked using water resistant ink. […] For Induction of Gq-DREADD, 50 μl CNO (1 mg/ml in 0.9% sterile saline) was injected intradermally into experimental animals together with fluorescent beads at full anagen (P31˜P36). Control animals were injected with equivalent volume of vehicle (0.9% sterile saline) together with fluorescent beads.
as §4

Take `NCCc1cc(O)c(O)cc1O` [6-OHDA, 6-hydroxy dopamine]: in assay [1] (setting [6]), the “effect on RTX-induced MeSC loss” value is “blocked RTX-induced hair greying and MeSC loss”. The “effect on RTX-induced hair greying” value in the assay on C57BL/6J mice (setting [6]) is listed as “blocked RTX-induced hair greying”.

Regarding `O=C(NC1CCNCC1)c1n[nH]cc1NC(=O)c1c(Cl)cccc1Cl` [AT7519, N-(4-Piperidinyl)-4-(2,6-dichlorobenzoylamino)-1H-pyrazole-3-carboxamide], the “MeSC preservation in RTX-injected animals” value in assay [1] is given as “preserved in the niche”. For the same compound, the “effect on RTX-induced hair greying” value with C57BL/6J mice (setting [7]) is reported as “inhibits RTX-induced hair greying”. For the same compound, the “proliferation of cells in the hair bulb” value in the assay with mature melanocytes is reported as “remained largely normal”. Moreover, the “MeSC quiescence in RTX-injected animals” value in assay [2] is “remained quiescent”.

`C[N+]1([O-])CCN(C2=Nc3cc(Cl)ccc3Nc3ccccc32)CC1` [CNO, Clozapine N-Oxide]: on Gq-DREADD (TH-CreER, Gq-DREADD mice), the “hair greying at CNO injection sites” value was “led to loss of MeSCs and hair greying at the sites where CNO was injected”; the “loss of MeSCs at CNO injection sites” value was “led to loss of MeSCs”. Moreover, at Gq-DREADD (low dose of tamoxifen), the “MeSC loss with mosaic TH-CreER activation” value was “resulted in MeSC loss only in hair follicles innervated by DREADD-positive nerve fibres”. The “c-FOS activation in sympathetic ganglia” value with sympathetic neurons is “induced c-FOS activation in sympathetic ganglia”.

With `CN1CC[C@H](c2c(O)cc(O)c3c(=O)cc(-c4ccccc4Cl)oc23)[C@H](O)C1` [Flavopiridol], the “MeSC preservation in RTX-injected animals” value in assay [1] was “preserved in the niche”. The “effect on RTX-induced hair greying” value in the assay with C57BL/6J mice (setting [7]) was “inhibits RTX-induced hair greying”. Moreover, the “proliferation of cells in the hair bulb” value in the assay with mature melanocytes is reported as “remained largely normal”. Moreover, the “MeSC quiescence in RTX-injected animals” value in assay [2] is listed as “remained quiescent”.

For the compound `COc1ccc(OC)c(C(O)C(C)NC(C)(C)C)c1` (centres unmarked) [butoxamine], the “effect on norepinephrine-induced melanocyte pigmentation/senescence” value with human hair follicles (NE 0.1 mM + butoxamine 0.1 mM, follicles of person) was “prevents norepinephrine-induced melanocyte pigmentation/senescence”.

Consider `C[C@]12C[C@H](O)[C@H]3[C@@H](CCC4=CC(=O)CC[C@@]43C)[C@@H]1CC[C@@H]2C(=O)CO` [corticosterone], for which, in assay [3], the “changes in MeSCs” value was “no changes in MeSCs or hair pigmentation” and the “changes in hair pigmentation” value is listed as “no changes in MeSCs or hair pigmentation”.

Consider `N=C(N)NCCN1CCCCCCC1` [guanethidine], for which, in assay [1] (mouse, in vivo), the “effect on MeSC loss upon RTX injection” value is “suppressed hair greying and MeSC loss”.

As to `NC[C@H](O)c1ccc(O)c(O)c1` [norepinephrine], the “hair greying at injection sites” value was “promoted hair greying at the injection sites” at ADRB2 on MeSCs (HFSC-specific adrb2 knockout mice); “failed to cause hair greying” at ADRB2 on MeSCs (MeSC-specific adrb2 knockout mice); “promoted hair greying at the injection sites” at ADRB2 on MeSCs (wild type mice, absence of stress). For the same compound, in the assay on mature melanocytes (after injection), the “proliferation or apoptosis in mature melanocytes” value is “no changes in proliferation or apoptosis”. Besides, the “melanocyte stem cell pigmentation in human hair follicles” value with human hair follicles (norepinephrine 0.1 mM) was “heavy norepinephrine-induced melanocyte stem cell pigmentation”. For the same compound, the “active caspase-3 or TUNEL signals in MeSCs” value in assay [4] (before MeSC depletion from the niche, 1 day after injection) is listed as “failed to detect active caspase-3 or TUNEL signals”. For the same compound, the “gamma-H2AX foci (DNA damage) in MeSCs” value in assay [4] (following injection) was “failure to detect gamma-H2AX foci”. The “MeSCs positive for Phospho-Histone H3” value in [2] (within 24 hours after injection, full anagen) is “about 50%”. Besides, the “phosphorylation/activation of CREB/ATF1” value in the assay on CREB/ATF1 is reported as “induces transient phosphorylation/activation of CREB/ATF1”. Besides, the “expression of proliferation and differentiation genes” value in assay [5] (cultured human melanocyte cells, NE 10 uM) was “rapid induction of proliferation genes like Cdk2, and differentiation genes like Mitf and Tyr”. For the same compound, the “expression of MITF and MITF target genes” value in assay [5] (cultured primary human melanocytes) was “induces MITF and multiple MITF target genes”.
